The first experiment concerns Rattus norvegicus. Kind of experiment: Tested for the protection against glutamic acid-evoked convulsions in rats by intraperitoneal administration. It is filed as functional. Conditions: ip.
The ED50 is the dose that gives a 50% effect, or the effect in half of the subjects. Turning to `N=c1sc2cc(OC(F)(F)F)ccc2n1CCN1CCN(c2ccccc2)CC1`, the ED50 came out at 3.5 mg/kg.

In turn, `Cn1c(=N)sc2cc(OC(F)(F)F)ccc21` displayed an ED50 of 5 mg/kg.

As to `CCSCCn1/c(=N/C)sc2cc(OC(F)(F)F)ccc21`, the ED50 worked out at 3.7 mg/kg.

In turn, `CN(CCc1ccccc1)CCn1c(=N)sc2cc(OC(F)(F)F)ccc21` yielded a median effective dose (ED50) of 5 mg/kg.

Compound `N=c1sc2cc(OC(F)(F)F)ccc2n1CCO` registered an ED50 of 8 mg/kg.

In turn, `N=c1sc2cc(OC(F)(F)F)ccc2n1CCc1ccccc1` gave a median effective dose (ED50) above 10 mg/kg.

`Nc1nc2ccc([N+](=O)[O-])cc2s1` yielded an ED50 above 10 mg/kg.

The compound `C[S+]([O-])CCCn1c(=N)sc2cc(OC(F)(F)F)ccc21` (configuration not stated) gave an ED50 of 2.3 mg/kg.

`N=c1sc2cc(OC(F)(F)F)ccc2n1Cc1ccccc1`: the ED50 was above 10 mg/kg.

In turn, `N=c1sc2cc(OC(F)(F)F)ccc2n1CCCN1CCN(c2ccccc2)CC1` registered an ED50 of 10 mg/kg.

In turn, `Nc1nc2cccc(OC(F)(F)F)c2s1` yielded a 50% effective dose (ED50) above 10 mg/kg.

`N#CCn1c(=N)sc2cc(OC(F)(F)F)ccc21` came in with an ED50 of 3.5 mg/kg.

In turn, `CCc1ccc2nc(N)sc2c1` returned an ED50 of 7 mg/kg.

With `Nc1nc2ccc(OC(F)(F)C(F)F)cc2s1`, the ED50 turned out to be 8.5 mg/kg.

As for `CCCSCCn1c(=N)sc2cc(OC(F)(F)F)ccc21`, the 50% effect level (ED50) was put at a dose of 2.4 mg/kg.

Turning to `N=c1sc2cc(OC(F)(F)F)ccc2n1CC[S+]([O-])c1ccccc1` (configuration not stated), the 50% effect level (ED50) was put at a dose of 4.2 mg/kg.

The compound `Nc1nc2ccc(OCC(F)(F)C(F)(F)F)cc2s1` returned an ED50 of 7.5 mg/kg.

For the compound `CCCCc1ccc2c(c1)sc(=N)n2CC[S+]([O-])CC` (configuration not stated), the ED50 is above 10 mg/kg.

Take `CCC(C)(C)c1ccc2nc(N)sc2c1`: the 50% effective dose (ED50) was above 10 mg/kg.

Compound `CN(CCn1c(=N)sc2cc(OC(F)(F)F)ccc21)Cc1ccccc1` registered a median effective dose (ED50) of 7 mg/kg.

Compound `Nc1ccc2nc(N)sc2c1` returned an ED50 above 10 mg/kg.

Consider `CS(=O)(=O)CCn1c(=N)sc2cc(OC(F)(F)F)ccc21`, for which the ED50 was determined as 1.8 mg/kg.

`CN(C)S(=O)(=O)CCn1c(=N)sc2cc(OC(F)(F)F)ccc21`: the ED50 is above 10 mg/kg.

Regarding `N=c1sc2cc(OC(F)(F)F)ccc2n1CCSc1ccccc1`, the ED50 was 4.5 mg/kg.

With `C[S+]([O-])Cn1c(=N)sc2cc(OC(F)(F)F)ccc21` (configuration not stated), the ED50 is 2.3 mg/kg.

For the compound `N#Cc1ccc2nc(N)sc2c1`, the ED50 is above 10 mg/kg.

In turn, `N=c1sc2cc(OC(F)(F)F)ccc2n1CCS` displayed an ED50 of 2 mg/kg.

`C[S+]([O-])CCn1c(=N)sc2cc(OC(F)(F)F)ccc21` (configuration not stated) registered an ED50 of 1.1 mg/kg.

In turn, `CC(C)(C)Oc1ccc2nc(N)sc2c1` returned an ED50 above 10 mg/kg.

Compound `CCSCCn1/c(=N/O)sc2cc(OC(F)(F)F)ccc21` had an ED50 above 10 mg/kg.

On to `CS(=O)(=O)c1ccc2nc(N)sc2c1`, for which the ED50 is above 10 mg/kg.

`CS(=O)(=O)CCCn1c(=N)sc2cc(OC(F)(F)F)ccc21`: the median effective dose (ED50) turned out to be 5 mg/kg.

In turn, `N=c1sc2cc(OC(F)(F)F)ccc2n1CCS(N)(=O)=O` displayed an ED50 of 6 mg/kg.

The compound `Nc1nc2c(OC(F)(F)F)cccc2s1` yielded an ED50 above 10 mg/kg.

For the compound `Nc1nc2ccc(C(F)(F)F)cc2s1`, the ED50 came to 2.5 mg/kg.

As to `N=c1sc2cc(OC(F)(F)F)ccc2n1CC(=O)O`, the ED50 is above 10 mg/kg.

Take `COC(=O)Cn1c(=N)sc2cc(OC(F)(F)F)ccc21`: the 50% effective dose (ED50) was above 10 mg/kg.

Turning to `Nc1nc2cc(OC(F)(F)F)ccc2s1`, the 50% effective dose (ED50) was above 10 mg/kg.

In the case of `CSCCn1c(=N)sc2cc(OC(F)(F)F)ccc21`, the ED50 was determined as 1 mg/kg.

The compound `N=c1sc2cc(OC(F)(F)F)ccc2n1CC(N)=O` had an ED50 of 7 mg/kg.

Regarding `CN(C)CCn1c(=N)sc2cc(OC(F)(F)F)ccc21`, the ED50 came to 2.3 mg/kg.

Take `CCCc1ccc2nc(N)sc2c1`: the 50% effective dose (ED50) was 6 mg/kg.

In turn, `CSCCn1/c(=N/C(C)=O)sc2cc(OC(F)(F)F)ccc21` registered an ED50 above 10 mg/kg.

Consider `CCCCCc1ccc2nc(N)sc2c1`, for which the ED50 worked out at 7.5 mg/kg.

On to `CCCCc1ccc2nc(N)sc2c1`, for which the ED50 was determined as 4 mg/kg.

`CC[S+]([O-])CCn1c(=N)sc2cc(OC(F)(F)F)ccc21` (configuration not stated) returned a median effective dose (ED50) of 1.2 mg/kg.

`CSCCCn1c(=N)sc2cc(OC(F)(F)F)ccc21` gave an ED50 of 4.2 mg/kg.

Compound `CNCCn1c(=N)sc2cc(OC(F)(F)F)ccc21` returned an ED50 above 10 mg/kg.

Turning to `CC(C)(C)Cc1ccc2nc(N)sc2c1`, the ED50 is above 10 mg/kg.

Compound `Nc1nc2ccc(C3CCCCC3)cc2s1` returned an ED50 above 10 mg/kg.

Regarding `N=c1sc2cc(OC(F)(F)F)ccc2n1CCN1CCCCC1`, the ED50 was 2 mg/kg.

Compound `N=c1sc2cc(OC(F)(F)F)ccc2n1CCN1CC=C(c2ccccc2)CC1` gave an ED50 of 2.2 mg/kg.

Regarding `CCSCCn1c(=N)sc2cc(OC(F)(F)F)ccc21`, it took a dose of 2.2 mg/kg to reach the 50% effect level (ED50).

Consider `CCCCn1c(=N)sc2cc(OC(F)(F)F)ccc21`, for which the ED50 was found to be 10 mg/kg.

`Nc1nc2ccc(SC(F)(F)F)cc2s1` registered a median effective dose (ED50) of 8 mg/kg.

Regarding `Nc1nc2ccc(OC(F)(F)C(F)(F)F)cc2s1`, the ED50 was found to be 2.5 mg/kg.

For the compound `Nc1nc2ccc(I)cc2s1`, the ED50 was above 10 mg/kg.

`CCS(=O)(=O)CCn1c(=N)sc2cc(OC(F)(F)C(F)(F)F)ccc21` returned an ED50 of 2.6 mg/kg.

As to `CCCn1c(=N)sc2cc(OC(F)(F)F)ccc21`, the 50% effect level (ED50) was put at a dose of 4.5 mg/kg.

On to `CCn1c(=N)sc2cc(OC(F)(F)F)ccc21`, for which the ED50 is 5 mg/kg.

As to `CC[S+]([O-])CCn1c(=N)sc2cc(C(F)(F)F)ccc21` (configuration not stated), the ED50 stood at 1.7 mg/kg.

`CCOC(=O)c1ccc2nc(N)sc2c1` showed a 50% effective dose (ED50) above 10 mg/kg.

The compound `Nc1nc2ccc(CC(F)(F)F)cc2s1` displayed an ED50 of 8 mg/kg.

`C=CCn1c(=N)sc2cc(OC(F)(F)F)ccc21` gave an ED50 of 7 mg/kg.

On to `Nc1nc2ccc(C(F)(F)C(F)(F)F)cc2s1`, for which the 50% effective dose (ED50) came to 2.5 mg/kg.

For `C[Si](C)(C)c1ccc2nc(N)sc2c1`, the ED50 is 5 mg/kg.

For `CC[S+]([O-])CCn1c(=N)sc2cc(C(C)(C)C)ccc21` (configuration not stated), the ED50 was above 10 mg/kg.

For `CCSCCn1/c(=N/OC)sc2cc(OC(F)(F)F)ccc21`, the ED50 is above 10 mg/kg.

In turn, `N=c1sc2cc(OC(F)(F)F)ccc2n1CCN1CCC(c2ccccc2)CC1` showed an ED50 of 3 mg/kg.

Regarding `CN(C)CCn1c(=N)sc2cc(C(C)(C)C)ccc21`, the ED50 was above 10 mg/kg.

`CNS(=O)(=O)CCn1c(=N)sc2cc(OC(F)(F)F)ccc21` had an ED50 of 4 mg/kg.

`Nc1nc2ccc(-c3ccccc3)cc2s1` yielded an ED50 above 10 mg/kg.

As to `CSCCn1c(=O)sc2cc(OC(F)(F)F)ccc21`, the ED50 was above 10 mg/kg.

For the compound `CC(C)c1ccc2nc(N)sc2c1`, the 50% effective dose (ED50) was above 10 mg/kg.

For the compound `CSCn1c(=N)sc2cc(OC(F)(F)F)ccc21`, the ED50 was 3 mg/kg.

`Nc1nc2ccc(OCC(F)(F)F)cc2s1` returned an ED50 of 6.5 mg/kg.

In turn, `CCCCCCc1ccc2nc(N)sc2c1` displayed a median effective dose (ED50) of 7 mg/kg.

Turning to `Nc1nc2ccc(OC(F)F)cc2s1`, the 50% effect level (ED50) was put at a dose of 7.5 mg/kg.

`C#CCn1c(=N)sc2cc(OC(F)(F)F)ccc21` showed an ED50 of 4 mg/kg.

As to `Nc1nc2ccc(C(=O)C(F)(F)F)cc2s1`, the ED50 was above 10 mg/kg.

Take `CCCCCCCc1ccc2nc(N)sc2c1`: the ED50 was above 10 mg/kg.

With `CCN(CC)C(=O)Cn1c(=N)sc2cc(OC(F)(F)F)ccc21`, it took a dose of 9 mg/kg to reach the 50% effect level (ED50).

The compound `N=c1sc2cc(OC(F)(F)F)ccc2n1CCS(=O)(=O)O` returned an ED50 above 10 mg/kg.

The compound `COc1ccc2nc(N)sc2c1` gave a median effective dose (ED50) above 10 mg/kg.

The compound `CN(C)CCn1c(=N)sc2ccccc21` showed an ED50 above 10 mg/kg.

`CC(C)(C)c1ccc2nc(N)sc2c1` had an ED50 of 4 mg/kg.

With `Nc1nc2ccc(Br)cc2s1`, the ED50 is above 10 mg/kg.

In turn, `CC/N=c1\sc2cc(OC(F)(F)F)ccc2n1CCSC` returned an ED50 of 8.5 mg/kg.

`CN(C)CCCn1c(=N)sc2cc(OC(F)(F)F)ccc21` displayed an ED50 of 9 mg/kg.

The compound `CCS(=O)(=O)CCn1c(=N)sc2cc(C(F)(F)C(F)(F)F)ccc21` returned an ED50 of 2.1 mg/kg.

On to `C[C@]12N[C@H](Cc3ccccc31)c1ccccc12` (racemic) [DIZOCILPINE], for which the 50% effect level (ED50) was put at a dose of 2.2 mg/kg.

`Nc1nc2ccc(OC(F)(F)F)cc2s1` [RILUZOLE] had an ED50 of 3.2 mg/kg.

A further experiment deals with Mus musculus. Kind of experiment: Protective effect against mortality induced by hypobaric hypoxia in mice by intraperitoneal (i.p.) administration. Conditions: ip. It is filed as functional.
`N=c1sc2cc(OC(F)(F)F)ccc2n1CCN1CCN(c2ccccc2)CC1` came in with an ED50 of 5.5 mg/kg.

In turn, `N=c1sc2cc(OC(F)(F)F)ccc2n1CCCN1CCN(c2ccccc2)CC1` came in with an ED50 above 10 mg/kg.

`C[S+]([O-])CCn1c(=N)sc2cc(OC(F)(F)F)ccc21` (configuration not stated) had an ED50 of 5.5 mg/kg.

Turning to `CSCCn1c(=N)sc2cc(OC(F)(F)F)ccc21`, the 50% effect level (ED50) was put at a dose of 14 mg/kg.

`CN(C)CCn1c(=N)sc2cc(OC(F)(F)F)ccc21`: the ED50 was 4 mg/kg.

`N=c1sc2cc(OC(F)(F)F)ccc2n1CCN1CCCCC1` yielded an ED50 below 5 mg/kg.

As to `Nc1nc2ccc(OC(F)(F)F)cc2s1` [RILUZOLE], it took a dose of 4 mg/kg to reach the 50% effect level (ED50).

The next experiment deals with Mus musculus. Kind of experiment: Protective effect against mortality induced by hypobaric hypoxia in mice by intraperitoneal (i.p.) administration; Range 2.5-10. It is filed as functional. The settings on record: ip.
`CS(=O)(=O)CCn1c(=N)sc2cc(OC(F)(F)F)ccc21`: the 50% effect level (ED50) was put at a dose of 2.5 mg/kg.

Consider `N=c1sc2cc(OC(F)(F)F)ccc2n1CCN1CC=C(c2ccccc2)CC1`, for which the ED50 worked out at 2.5 mg/kg.

With `N=c1sc2cc(OC(F)(F)F)ccc2n1CCN1CCC(c2ccccc2)CC1`, the ED50 amounted to 2.5 mg/kg.

These data come from ChEMBL document CHEMBL1132316 (J Med Chem, 1999).
